Results published in US20120027720A1, “PEPTIDE CONJUGATES” (priority 2008, published 2012).
Where no end group is shown, it is not given here. [ ]: non-standard residue; d: D form. 2Pal = N[C@@H](Cc1ccccn1)C(=O)O; dAllylGly = C=CC[C@@H](N)C(=O)O; AllylGly = C=CC[C@H](N)C(=O)O; hSer = N[C@@H](CCO)C(=O)O; Pra = C#CC[C@H](N)C(=O)O

Key:
[1] = tested on: CaCo2 monolayers; assay: Trans Epithelial Electric Resistance (TEER) across cell monolayer; assay type: cell-based; design: key to Reduced TEER: + indicates an enhancement of the permeability of the tight junctions were observed; − indicates no enhancement of permeability was observed; settings: Caco-2 monolayer
From the text: (§1) Agonists of tight junctions can be identified by their ability to enhance the flux of compounds (e.g. ions, Lucifer Yellow) through a cell monolayer that comprises tight junctions; or by their ability to reduce TEER across a cell monolayer that comprises tight junctions. Treatment of CaCo2 monolayers with peptide FCIGRL (SEQ ID NO: 1) led to a 51-fold enhancement of Lucifer Yellow permeability through CaCo2 monolayers compared to vehicle alone. Treatment of CaCo2 monolayers with peptide FCIGRL led to a 16-fold decrease in TEER across CaCo2 monolayers compared to vehicle alone.
(§2) Determination of TEER and Lucifer Yellow Flux
(§3) Prepare Modified Hank's Balanced Salt Solution (MHBSS) by obtaining 1 L bottle of HBSS removing 10 ml of HBSS and replacing it with 10 ml HEPES buffer pH 7.0. Adjust pH to 7.4±0.1 using concentrated NaOH (10N).
(§4) Remove Caco-2 cells from incubator, grown on 12-well, […], polycarbonate Transwell® filters (Corning) and record passage#, date cells seeded and age in days.
(§5) Aspirate cell culture medium from both the apical (AP) and basolateral (BL) compartments, replacing with 0.5 ml and 1.5 ml of MHBSS, respectively. Incubate cells at 37° C. for 30 minutes.
Using the MilliCell®-ERS instrument (Millipore), measure and record the transepithelial electrical resistance (TEER) across each filter and record.
(§6) Aspirate solution from the apical compartment of each filter (n=3 per condition) and replace with 0.5 ml of control and test solutions containing Lucifer Yellow and test compound if appropriate.
(§7) Place all plates into incubator set at 37° C. (±0.2), 50 RPM (±5) for a total of 180 minutes.
At t=30, 60, 120 and 180 minutes, measure and record the transepithelial electrical resistance (TEER) across each filter using the MilliCell-ERS instrument.
(§8) Cells: Caco-2 cells passage 40-60 grown on Transwell® plates for 21-28 days
(§9) Culture Medium: DMEM supplemented with 10% fetal bovine serum, 1% NEAA, 1% Penn/Strep
(§10) Buffers: Hank's Balanced Salt Solution (HBSS) without calcium and magnesium
(§11) Flasks: 100×20 mm Tissue culture dish Falcon.
(§12) Plates: 12 well polycarbonate Transwell® filters; 0.3 uM pore size

[2] = tested on: CaCo2 monolayers; assay: Epithelial flux of Lucifer Yellow through cell monolayer; assay type: cell-based; design: key to Enhanced LY permeability: + indicates an enhancement of the permeability of the tight junctions were observed; − indicates no enhancement of permeability was observed; settings: Lucifer Yellow flux, Caco-2 monolayer
From the text: as §1, §2, §3, §4, §5, §6, §7
At t=60, 120 and 180 minutes remove 100 μl from each basolateral compartment and place it in a 96-well plate for Lucifer Yellow analysis, replace with 100 μl of MHBSS.
Make a Lucifer Yellow standard curve with the following dilutions (7500 μM, 3750 μM, 750 μM, 375 μM, 75 μM, 37.5 μM, 7.5 μM, 3.75 μM, 0.75 μM) and pipette […] of each into a 96-well plate except for the first three standards mentioned above which require a 1:10 dilutions prior to transferring to the 96-well plate.
Harvest the remaining start solutions and what is left in each apical compartment into 1.5 ml vials. Freeze at −20° C. for future analysis.
Analyze each 96-well plate in a Tecan Spectra Fluor Plus using Magellan at 485 and 535 nm.
as §8, §9, §10, §11, §12

Q: What does the source list for “193 (Y[AllylGly]IGRL-NH2; N-terminus assumed; SMILES C=CC[C@H](NC(=O)[C@@H](N)Cc1ccc(O)cc1)C(=O)N[C@H](C(=O)NCC(=O)N[C@@H](CCCNC(=N)N)C(=O)N[C@@H](CC(C)C)C(N)=O)[C@@H](C)CC) [compound 193]”?
A: Reduced TEER [1]: −; Enhanced LY permeability [2]: −

Q: Which results are given for “28 (LRGIC[dF]; not fully specified; printed as Leu-Arg-Gly-Ile-Cys-D-Phe) [compound 28]”?
A: Reduced TEER [1]: −; Enhanced LY permeability [2]: −

Q: Which “Reduced TEER” value [1] does the source give for “151 (F[hSer]IGRF; also: peptide conjugate, Xaa: 'may be' homoserine) [compound 151]” here?
A: The value was “−”.

Q: And the “Enhanced LY permeability” value [2]?
A: Its value is “−”.

Q: What does the source list for “74 (YCIGRL; not fully specified; printed as Tyr-Cys-Ile-Gly-Arg-Leu) [compound 74]”?
A: Reduced TEER [1]: +; Enhanced LY permeability [2]: +

Q: “145 (H-F[dC]IGRL-OH; also: peptide conjugate) [compound 145]” was tested. Which “Reduced TEER” value [1] did it give?
A: The value was “+”.

Q: What about the “Enhanced LY permeability” value [2] of the same substance?
A: The value was “+”.

Q: Which results are given for “133 (FYIGRL; also: peptide conjugate) [compound 133]”?
A: Reduced TEER [1]: −; Enhanced LY permeability [2]: −

Q: How did the “Reduced TEER” value [1] turn out when “202 (I[AllylGly]IGRL-NH2; N-terminus assumed; SMILES C=CC[C@H](NC(=O)[C@@H](N)[C@@H](C)CC)C(=O)N[C@H](C(=O)NCC(=O)N[C@@H](CCCNC(=N)N)C(=O)N[C@@H](CC(C)C)C(N)=O)[C@@H](C)CC) [compound 202]” was run?
A: Its value is “−”.

Q: And the “Enhanced LY permeability” value [2]?
A: Its value is “−”.

Q: “39 ([dL][dR]GI[dC]F; not fully specified) [compound 39]” was tested. Which “Reduced TEER” value [1] did it give?
A: Its value is “−”.

Q: And the “Enhanced LY permeability” value [2]?
A: The value was “−”.

Q: With “185 (F[dAllylGly]IGR-NH2; N-terminus assumed; SMILES C=CC[C@@H](NC(=O)[C@@H](N)Cc1ccccc1)C(=O)N[C@H](C(=O)NCC(=O)N[C@@H](CCCNC(=N)N)C(N)=O)[C@@H](C)CC) [compound 185]” as the substance, how does the “Reduced TEER” value [1] read?
A: Its value is “−”.

Q: And the “Enhanced LY permeability” value [2]?
A: Its value is “−”.

Q: What does the source list for “188 (L[AllylGly]IGRL-NH2; N-terminus assumed; SMILES C=CC[C@H](NC(=O)[C@@H](N)CC(C)C)C(=O)N[C@H](C(=O)NCC(=O)N[C@@H](CCCNC(=N)N)C(=O)N[C@@H](CC(C)C)C(N)=O)[C@@H](C)CC) [compound 188]”?
A: Reduced TEER [1]: −; Enhanced LY permeability [2]: −

Q: What does the source list for “176 (F[Pra]IGR-NH2; N-terminus assumed; SMILES C#CC[C@H](NC(=O)[C@@H](N)Cc1ccccc1)C(=O)N[C@H](C(=O)NCC(=O)N[C@@H](CCCNC(=N)N)C(N)=O)[C@@H](C)CC) [compound 176]”?
A: Reduced TEER [1]: −; Enhanced LY permeability [2]: −

Q: For “138 (LRGILF-NH2; also: peptide conjugate) [compound 138]”, which “Reduced TEER” value [1] is on record?
A: The value was “+”.

Q: And the “Enhanced LY permeability” value [2]?
A: The value was “+”.

Q: What does the source list for “30 ([dF][dC][dI]G[dR]L; not fully specified) [compound 30]”?
A: Reduced TEER [1]: +; Enhanced LY permeability [2]: +

Q: What does the source list for “155 (F[dV]IGRL-OH; also: peptide conjugate) [compound 155]”?
A: Reduced TEER [1]: −; Enhanced LY permeability [2]: −

Q: Which results are given for “197 (K[AllylGly]IGRL-NH2; N-terminus assumed; SMILES C=CC[C@H](NC(=O)[C@@H](N)CCCCN)C(=O)N[C@H](C(=O)NCC(=O)N[C@@H](CCCNC(=N)N)C(=O)N[C@@H](CC(C)C)C(N)=O)[C@@H](C)CC) [compound 197]”?
A: Reduced TEER [1]: −; Enhanced LY permeability [2]: −

Q: Which “Reduced TEER” value [1] does the source give for “163 (F[2Pal]IGRL; also: peptide conjugate, Xaa: 'may be' L-beta-(2-pyridyl)-alanine) [compound 163]” here?
A: The value was “−”.

Q: What about the “Enhanced LY permeability” value [2] of the same substance?
A: Its value is “−”.
